# Experimental data published in patent US12391686B2, “Compounds and uses thereof” (Foghorn Therapeutics Inc., priority 2019, dated 2025).
# Tests used:
# Format in all cases: cell-based
# SYO1 cells [1] = experiment: Cell cycle analysis (Click-iT Plus EdU Flow Cytometry Assay); conditions: 200 nM or 1 μM, 8 or 13 days, as compared to DMSO and lenalidomide
# Procedure: (§1) Procedure: SYO1 cells were treated for 8 or 13 days with DMSO, a BRD9 degrader (Compound 1) at 200 nM or 1 μM, or an E3 ligase binder (lenalidomide) at 200 nM. Compounds were refreshed every 5 days. Cell cycle analysis was performed using the Click-iT™ Plus EdU Flow Cytometry Assay (Invitrogen). The apoptosis assay was performed using the Annexin V-FITC Apoptosis Detection Kit (Sigma A9210). Assays were performed according to the manufacturer's protocol.
# SYO1 cells [2] = experiment: Apoptosis assay (Annexin V-FITC Apoptosis Detection Kit); conditions: 200 nM or 1 μM, 8 days, as compared to DMSO controls
# Procedure: as §1
# [3] = tested on: non-synovial control cancer cell lines (293T, A549, G401); experiment: Growth of non-synovial control cancer cell lines, Example 3; conditions: FIGS. 5, 6, 7
# Procedure: (§2) Procedures: Cells were treated with DMSO or the BRD9 degrader, Compound 1, at indicated concentrations, and proliferation was monitored from day 7 to day 14 by measuring confluency over time using an IncuCyte live cell analysis system (FIG. 5). Growth medium and compounds were refreshed every 3-4 days.
# (§3) Cells were seeded into 12-well plates and treated with DMSO, 1 μM BRD9 inhibitor, Compound 2 (also known as BI-7273, see Martin et al, J Med Chem. 59(10):4462-4475 (2016); see structure of Compound 2 below), or 1 μM BRD9 degrader, Compound 1.
# (§4) The number of cells was optimized for each cell line. Growth medium and compounds were refreshed every 3-5 days. SYO1, Yamato, A549, 293T and HS-SY-II cells were fixed and stained at day 11. ASKA cells were fixed and stained at day 23. Staining was done by incubation with crystal violet solution (0.5 g Crystal Violet, 27 ml 37% Formaldehyde, 100 mL 10×PBS, 10 mL Methanol, 863 dH2O to 1 L) for 30 min followed by 3× washes with water and drying the plates for at least 24 h at room temperature. Subsequently plates were scanned on an Odyssey CLx Imaging system (FIG. 6).
# (§5) Cells were seeded into 96-well ultra low cluster plate (Costar, #7007) in 200 μL complete media and treated at day 2 with DMSO, Staurosporin, or BRD9 degarder, Compound 1, at indicated doses (FIG. 7). Media and compounds were changed every 5 d and cell colonies were imaged at day 14.
# [4] = tested on: synovial sarcoma cell lines (SYO1, HS-SY-II, and ASKA); experiment: Crystal violet growth assay in synovial sarcoma cell lines, Example 4; conditions: for inhibition of the growth of the cells: SYO1, HS-SY-II, ASKA, treated daily, day 14, FIG. 8
# Procedure: (§6) Procedure: Cells were seeded into 6-well or 12-well plates and were treated daily with a BRD9 degrader (Compound 1), a bromo-domain BRD9 binder (Compound 2), E3 ligase binder (lenalidomide), DMSO, or staurosporin (positive control for cell killing), at indicated concentrations. The number of cells was optimized for each cell line. Growth media was refreshed every 5 days. By day 14, medium was removed, cells were washed with PBS, and stained using 500 μL of 0.005% (w/v) crystal violet solution in 25% (v/v) methanol for at least 1 hour at room temperature. Subsequently plates were scanned on an Odyssey CLx Imaging system.
# [5] = tested on: non-synovial control cancer cell lines (RD, HCT116, and Calu6); experiment: Crystal violet growth assay in non-synovial control cancer cell lines, Example 4; conditions: treated daily, day 14, FIG. 9
# Procedure: as §6
# [6] = tested on: synovial sarcoma cell lines (SYO1, Yamato, HS-SY-II, and ASKA); experiment: Growth of synovial sarcoma cell lines (IncuCyte confluency, crystal violet, colony imaging), Example 3; conditions: 1 μM or indicated doses, FIGS. 5, 6, 7
# Procedure: as §2, §3, §4, §5
structure (smiles),measurement,setting,value
COc1cc(-c2cn(C)c(=O)c3cnccc23)cc(OC)c1CN(C)CC(=O)NCCOCCOCCNc1cccc2c1C(=O)N(C1CCC(=O)NC1=O)C2=O (centres unmarked) [Compound 1],numbers of cells in the S-phase of the cell cycle,SYO1 cells [1],reduced numbers of cells in the S-phase
same,numbers of early- and late-apoptotic cells,SYO1 cells [2],increased numbers of early- and late-apoptotic cells
same,inhibition of the growth of the cells,[3],does not result in inhibition of the growth
same,inhibition of the growth of the cells,[4],inhibition of the growth of the cells
same,growth inhibition compared with the other treatments,"[4]; all synovial cell lines, versus Compound 2 and lenalidomide",most significant growth inhibition
same,inhibition of the growth of the cells,[5],did not result in inhibition of the growth
same,inhibition of the growth of the cells,[6],inhibition of the growth of the cells
COc1cc(-c2cn(C)c(=O)c3cnccc23)cc(OC)c1CN(C)C [Compound 2],inhibition of the growth of the cells,[3],does not result in inhibition of the growth
same,inhibition of the growth of the cells,[4],inhibition of the growth of the cells
same,inhibition of the growth of the cells,[5],did not result in inhibition of the growth
same,inhibition of the growth of the cells,[6],inhibition of the growth of the cells
